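All cell lines were grown in 96-well plates and treated with compound for 48 hours. Abbreviation: GI50, concentration required for 50% inhibition of growth.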 Calls of active or inactive are those of the source. Cut-off read from the data, not from the text of the source: active = GI50 up to about 1.1 µM and inactive = higher. Where only a bound is given, the exact number is not on record here.

Here are results for ten molecules from ChEMBL document CHEMBL1201862, “PubChem BioAssay data set” (2004).

Test systems include KM12; EKVX; SNB-75; MOLT-4; HCC 2998; K562; UACC-62; M14; SK-OV-3; COLO 205; MDA-MB-231; MCF7; MDA-MB-435; SK-MEL-28; SF-268; IGROV-1; NCI/ADR-RES; HT-29; SW-620; BT-549.
Holding throughout (assay): DTP human tumour cell line panel, 48 h

Regarding `CCn1c(=O)c2c3ccc(OC)cc3[nH]c2c2ccc(OC)cc21`, the GI50 in the test on KM12 is 8.18 µM (inactive); in the test with EKVX, 57.8 µM (inactive); in the test on SNB-75 it was 19.8 µM (inactive); in the test on MOLT-4, 22.6 µM (inactive); in the test on HCC 2998, 21.2 µM (inactive); in the test with K562, 25.7 µM (inactive). Besides, the GI50 is 63.2 µM (inactive) with UACC-62; 36.1 µM (inactive) with M14; 80.7 µM (inactive) in the test with SK-OV-3; 39.4 µM (inactive) in the test with COLO 205; 57 µM (inactive) with MDA-MB-231; 50.1 µM (inactive) in the test with MCF7. Further, the GI50 is > 100 µM (inactive) in the test with MDA-MB-435; 63.1 µM (inactive) in the test with SK-MEL-28; 62.2 µM (inactive) in the test with SF-268; > 100 µM (inactive) in the test with IGROV-1; 32.9 µM (inactive) in the test on NCI/ADR-RES; 38.3 µM (inactive) in the test with HT-29. Also, the GI50 in the test on SW-620 is 57.3 µM (inactive); in the test on BT-549, 79.4 µM (inactive).
On to `CCN(CC)CCN1C=CC(C)C(C(=O)O)C1C(N)=O` (stereo not given), for which the GI50 in the test with KM12, in the test on EKVX, in the test with SNB-75, with MOLT-4, in the test with HCC 2998 and with K562 was > 100 µM (inactive) in each case. For the same molecule, the GI50 in the test on UACC-62, with M14, in the test on SK-OV-3, in the test on COLO 205, in the test on MDA-MB-231 and in the test on MCF7 was > 100 µM (inactive) throughout. For the same molecule, the GI50 with MDA-MB-435, in the test on SK-MEL-28, in the test on SF-268, in the test on IGROV-1, in the test with NCI/ADR-RES and in the test with HT-29 was > 100 µM (inactive) in each case. For the same molecule, the GI50 with SW-620 and in the test on BT-549 was > 100 µM (inactive) each time.
Regarding `COc1ccc(N2C(=O)C3c4[nH]c5ccc(C)cc5c4C4CCC(C(C)(C)C)CC4C3C2=O)cc1` (stereo not given), the GI50 was 32.8 µM (inactive) in the test on KM12; 31 µM (inactive) in the test on EKVX; 2.96 µM (inactive) with SNB-75; 12.9 µM (inactive) in the test on MOLT-4; 41 µM (inactive) in the test with HCC 2998; 13.4 µM (inactive) in the test on K562. The GI50 in the test on UACC-62 was 7.93 µM (inactive); in the test on M14, 10.7 µM (inactive); with SK-OV-3, 12.4 µM (inactive); in the test with COLO 205, 18.4 µM (inactive); with MDA-MB-231, 35.9 µM (inactive); in the test on MCF7, 33 µM (inactive). Besides, the GI50 with MDA-MB-435 was 24.9 µM (inactive); in the test on SK-MEL-28, 11.5 µM (inactive); with SF-268, 13 µM (inactive); with IGROV-1, 38.9 µM (inactive); with NCI/ADR-RES, 13.3 µM (inactive); in the test on HT-29 it was 12.7 µM (inactive). The GI50 in the test with SW-620 is 5.58 µM (inactive); with BT-549, 20.7 µM (inactive).
Turning to `N#CC(NNC(=O)c1ccccc1O)c1c(O)ccc2ccccc12` (stereo not given), the GI50 is 4.84 µM (inactive) in the test on KM12; 5.66 µM (inactive) with EKVX; 7.31 µM (inactive) with SNB-75; 2.26 µM (inactive) with MOLT-4; 9.55 µM (inactive) in the test with HCC 2998; 2.9 µM (inactive) in the test with K562. The GI50 is 2.61 µM (inactive) in the test with UACC-62; 3.46 µM (inactive) in the test with M14; 4.68 µM (inactive) in the test on SK-OV-3; 13.2 µM (inactive) with COLO 205; 3.2 µM (inactive) in the test with MDA-MB-231; 4.5 µM (inactive) with MCF7. Besides, the GI50 is 8.53 µM (inactive) in the test on MDA-MB-435; 9.33 µM (inactive) in the test with SK-MEL-28; 3.24 µM (inactive) in the test on SF-268; 4.4 µM (inactive) in the test with IGROV-1; 3.44 µM (inactive) with NCI/ADR-RES; 20.3 µM (inactive) in the test with HT-29. The GI50 is 4.3 µM (inactive) in the test on SW-620 and 7.11 µM (inactive) with BT-549.
As to `CC(=O)Nc1[nH]c(C#N)nc1C#N`, the GI50 in the test with KM12, with EKVX, in the test with SNB-75, with MOLT-4, in the test on HCC 2998 and in the test on K562 was > 100 µM (inactive) each time. For the same molecule, the GI50 in the test with UACC-62, with M14, with SK-OV-3, with COLO 205, with MDA-MB-231 and in the test on MCF7 was > 100 µM (inactive) in each case. Further, the GI50 with MDA-MB-435, in the test on SK-MEL-28, in the test on SF-268, in the test with IGROV-1, with NCI/ADR-RES and with HT-29 was > 100 µM (inactive) each time. Besides, the GI50 in the test with SW-620 and in the test with BT-549 was > 100 µM (inactive) each time.
`CC1(C)CC(=O)C(CC2C(=O)c3ccccc3C2=O)C(=O)C1C(=O)C(=O)Nc1cccc2ccc(O)cc12` (stereo not given): the GI50 is > 100 µM (inactive) with KM12; 43.9 µM (inactive) with EKVX; 78 µM (inactive) with SNB-75; 53.5 µM (inactive) in the test on MOLT-4; > 100 µM (inactive) with HCC 2998; 40.9 µM (inactive) in the test with K562. In addition, the GI50 is > 100 µM (inactive) in the test on UACC-62; > 100 µM (inactive) with M14; > 100 µM (inactive) in the test with SK-OV-3; > 100 µM (inactive) in the test on COLO 205; 34 µM (inactive) with MDA-MB-231; 32.2 µM (inactive) with MCF7. For the same molecule, the GI50 in the test on MDA-MB-435 was > 100 µM (inactive); with SK-MEL-28, > 100 µM (inactive); in the test on SF-268, > 100 µM (inactive); in the test on IGROV-1 it was 48.9 µM (inactive); with NCI/ADR-RES, 54.1 µM (inactive); in the test with HT-29 it was > 100 µM (inactive). Also, the values for the GI50 in the test with SW-620 and in the test on BT-549 were > 100 µM (inactive) and 15 µM (inactive), respectively.
Turning to `CCC1(CC)C(=O)NN(C(=O)c2ccc(Cl)cc2)C1=O`, the GI50 with KM12, with EKVX, in the test with SNB-75, in the test with MOLT-4, in the test on HCC 2998 and with K562 was > 100 µM (inactive) each time. The GI50 in the test with UACC-62, with M14, with SK-OV-3, with COLO 205, in the test with MDA-MB-231 and with MCF7 was > 100 µM (inactive) each time. For the same molecule, the GI50 in the test with MDA-MB-435, in the test with SK-MEL-28, in the test with SF-268, in the test with IGROV-1, in the test on NCI/ADR-RES and with HT-29 was > 100 µM (inactive) in each case. For the same molecule, the GI50 in the test with SW-620 and with BT-549 was > 100 µM (inactive) in each case.
As for `O=C(O)c1ccccc1/N=N/c1c(O)c(S(=O)(=O)O)cc2cc(S(=O)(=O)O)ccc12`, the GI50 in the test with KM12 was 84.3 µM (inactive); in the test on EKVX, > 100 µM (inactive); with SNB-75, > 100 µM (inactive); in the test with MOLT-4, > 100 µM (inactive); in the test with HCC 2998, > 100 µM (inactive); in the test on K562 it was > 100 µM (inactive). In addition, the GI50 in the test on UACC-62, in the test with M14, with SK-OV-3, with COLO 205, with MDA-MB-231 and in the test with MCF7 was > 100 µM (inactive) throughout. Moreover, the GI50 with MDA-MB-435, with SK-MEL-28, in the test on SF-268, in the test with IGROV-1, in the test with NCI/ADR-RES and in the test on HT-29 was > 100 µM (inactive) throughout. For the same molecule, the GI50 in the test on SW-620 and in the test on BT-549 was > 100 µM (inactive) throughout.
Turning to `C=C1CC(Cn2ccc(=O)[nH]c2=O)(c2ccc(-c3ccccc3)cc2)OC1=O` (stereo not given), the GI50 in the test with KM12 is 3.61 µM (inactive); with EKVX, 12.2 µM (inactive); in the test with SNB-75, 13.6 µM (inactive); with MOLT-4 it was 1.5 µM (inactive); with HCC 2998, 2.07 µM (inactive); with K562, 0.208 µM (active). Also, the 50% growth inhibitory concentration (GI50) in the test with UACC-62 was 0.764 µM (active); in the test with M14, 1.67 µM (inactive); in the test with SK-OV-3 it was 8.09 µM (inactive); in the test on COLO 205 it was 0.441 µM (active); with MDA-MB-231 it was 1.98 µM (inactive); with MCF7 it was 0.916 µM (active). In addition, the GI50 in the test with MDA-MB-435 was 1.69 µM (inactive); with SK-MEL-28, 2.45 µM (inactive); in the test on SF-268, 16.1 µM (inactive); in the test on IGROV-1 it was 1.04 µM (active); in the test on NCI/ADR-RES, 0.805 µM (active); in the test on HT-29 it was 0.938 µM (active). Moreover, the GI50 was 0.257 µM (active) in the test on SW-620 and 1.86 µM (inactive) in the test with BT-549.
Regarding `O=C1Nc2ccccc2/C1=C\c1c(Cl)n(-c2ccccc2)c2ccccc12`, the GI50 in the test with KM12 is 2.84 µM (inactive); in the test with EKVX it was 2.33 µM (inactive); in the test on SNB-75, 1.73 µM (inactive); in the test with MOLT-4, 4.82 µM (inactive); with HCC 2998, 3.15 µM (inactive); in the test on K562, 2.48 µM (inactive). The GI50 with UACC-62 is 8.07 µM (inactive); in the test with M14, 2.92 µM (inactive); in the test with SK-OV-3, 4.07 µM (inactive); in the test with COLO 205 it was 1.61 µM (inactive); in the test with MDA-MB-231, 3.03 µM (inactive); in the test with MCF7, 3.44 µM (inactive). For the same molecule, the GI50 in the test on MDA-MB-435 was 0.759 µM (active); in the test on SK-MEL-28 it was 12 µM (inactive); with SF-268, 0.832 µM (active); in the test with IGROV-1, 2.75 µM (inactive); with NCI/ADR-RES it was 2.38 µM (inactive); in the test on HT-29, 2.43 µM (inactive). The GI50 was 2.47 µM (inactive) with SW-620 and 5.93 µM (inactive) in the test with BT-549.

By GI50 is commonly meant the concentration at which growth is held to half of that of the control.
